Experimental data reported in paper PMC5650372 (Oncotarget, 2017).

Tests used:
[1] = test system: NHEJ in intact cells of different cell lines; experiment: Cellular NHEJ assay, summary over cell lines; format: cell-based; conditions: Homo sapiens; range over different cell lines (Table 1); read-out: potency against NHEJ in intact cells
Method: (§1) deficient cell growth in vitro […]
(§2) incorporated in the corresponding no inhibitor control mTOR, DNA-PK and PI3K-alpha assays were to determine percent inhibition. An IC50 value was then performed as reported previously. estimated.
(§3) ATM and ATR assay and IC50 determination Cellular NHEJ assay
(§4) HA-ATM and FLAG-ATR (HA-labeled ATM, and The experimental design is illustrated in FLAG-labeled ATR) were each transiently expressed in Supplementary Figure 4. Cal-51 breast cancer cells HEK293 cells (293FT cells, Invitrogen Cat: R700-07) were separately transfected with pEGFP plasmid (6085-using Lipofectamine as transfection reagent. Cells were 1, Clontech, Mountain View, CA) digested with either harvested 6 days post transfection and spun down to EcoRI (to measure NHEJ) or StuI (to measure transfection separate cells from media. Cells were then lysed using a efficiency) using a Amaxa cell line nuclearfector kit V lysis buffer (50 mM Tris buffer, (Tris(hydroxylmethyl)- (CCA-1003, Lonza). Immediately after the transfection, aminomethane, pH 7.5), 100 mM NaCl, 50 mM βGOP, the cells were treated with DMSO or compounds at 10% Glycerol, 0.5% Tween 20, 1 mM EDTA, 25 mM indicated concentrations for 24 hours and GFP-positive sodium fluoride (NaF), 20 nM microcystine, 2 mM cells were counted under a fluorescent microscope. […]

[2] = test system: pS6 S235/236 in NCI-H441 cells; experiment: Western blot quantitation of pS6 S235/236 (mTORC1 biomarker); format: cell-based; conditions: Homo sapiens; NCI-H441, presence of bleomycin, 2 hrs, n=3; read-out: IC50 of pS6 S235/236 inhibition
[3] = test system: pATM S1981 and pNbs1 S343 in HT29 and MDA-MB-436 cells; experiment: Immunoblotting of intact cells with bleomycin; format: cell-based, human; conditions: 5 μM with 1.5 mU/mL bleomycin, 2 or 12 hours
NHEJ in Cal-51 cells = experiment: Cellular NHEJ assay with GFP reporter gene; format: cell-based, human; conditions: 1 μM
Method: as §1, §2, §3, §4

[4] = molecular target: T1, DNA-PKcs, XRCC4 and DNA ligase IV on DNA (Homo sapiens, UniProt P78527); experiment: DNA end binding assay (MCF7 nuclear extract); format: biochemical; conditions: 5 μM, MCF7 nuclear extract, 10, 30, 60 minutes
T1 construct: endogenous in cells; host or cells: MCF7 nuclear extract
Source text: One kb of DNA fragment, including an EcoRI sequence in the middle, was amplified by PCR using pEGFP as a template and a pair of biotinylated EGFP primers (5′-biotin-[…]-3′ and 5′-biotin-[…]-3′: Valuegene, San Diego, CA). The amplified DNA fragment was cleaved by EcoRI to produce two 0.5 kb biotinylated DNA fragments, and was purified using the QIAquick PCR purification kit (Qiagen). […] An aliquot of the reaction was removed at each time point to separate the supernatant and the beads. The supernatant was subjected to SDS-PAGE and immunoblotting with indicated antibodies. The beads were washed twice with 250 μL of IP buffer (25 mM Hepes-KOH, pH 7.5, 100 mM NaCl, 20% glycerol, 5 mM EDTA, 1 mM DTT, 0.05% Nonidet P-40, 10 mM NaF, and protease inhibitor mixture) and subjected to SDS-PAGE and immunoblotting with indicated antibodies.

[5] = test system: pDNA-PK S2056 in HT29 and MDA-MB-436 cells; experiment: Immunoblotting of intact cells with bleomycin; format: cell-based, human; conditions: 5 μM with 1.5 mU/mL bleomycin, 2 or 12 hours
Method: The cell lysates were subjected to SDS-PAGE and immunoblotting with indicated antibodies. […] The pDNA-PK bands were quantified by Odyssey imaging software (LI-COR, Lincoln, NE) and normalized to total DNA-PK. IC50 values were determined by Excelfit (London, UK).

[6] = test system: ATM-proficient cell lines (MDA-MB-231, MCF7, CAL51, HCC1937); experiment: Colony-formation assay; format: cell-based, human; conditions: versus ATM-deficient HCC1187
Method: MCF7, Cal51, MDA-MB-231, H1937, MDA-MB-175VII and HCC1187 human breast cancer cell lines were plated at 2000 cells per well in 6-well plates and HCC1500 breast cancer cell line was plated at 10,000 cells per well in 6-well plates and cultured overnight. Cells were then treated with compounds at indicated concentrations. Media and compounds were changed every three days. Plates were incubated for a total of about two weeks then fixed and stained using the DIFF QUIK staining kit (Microptic, Barcelona, Spain). Colonies were imaged and counted.

[7] = test system: hematological and solid tumor cell lines; experiment: Caspase 3/7-Glo apoptosis assay; format: cell-based, human; conditions: 24 h, subset of hematological and solid tumor cell lines
Method: Proliferation assays were performed as previously described. […] The concentration of compound required for a 2-fold induction of Caspase was determined (CalX).

[8] = test system: pAKT S473 in NCI-H441 cells; experiment: Western blot quantitation of pAKT S473 (mTORC2 biomarker); format: cell-based; conditions: Homo sapiens; NCI-H441, presence of bleomycin, 2 hrs, n=3; read-out: IC50 of pAKT S473 inhibition
[9] = test system: NCI-H1975 and SW1573 cells; experiment: Clonogenic assay alone or with etoposide; format: cell-based, human
Method: Media were changed every three days. Plates were incubated for a total of about two weeks then fixed and stained using the DIFF QUIK staining kit. Colonies were imaged and counted.

## CCN1C(=O)CNc2ncc(-c3ccc(-c4nc[nH]n4)nc3C)nc21 [CC-115, 1-ethyl-7-(2-methyl-6-(1H-1,2,4-triazol-3-yl)pyridin-3yl)-3,4-dihydropyrazino[2,3-b]pyrazin-2(1H)-one]
[1]
  IC50: 1 to 7 µM
[2]
  IC50: 160 ± 10 nM
[3]
  ATM activity (pATM S1981 and pNbs1 S343): significantly inhibited
NHEJ in Cal-51 cells
  GFP-positive cells (pEGFP-EcoRI): 1.25%
NHEJ in Cal-51 cells; DMSO 25.71%
  GFP-positive cells (pEGFP-StuI): 10.47%
[4]
  DNA-PKcs, XRCC4 and DNA ligase IV bound to DNA over time: retained from 10 minutes through the end of the reaction at 60 minutes
[5]
  DNA-PK activity (pDNA-PK S2056): significantly inhibited
[6]
  ATM-proficient cell lines less sensitive to inhibition of colony formation: 100 fold
[7]
  apoptosis induction (Caspase 3/7): induced strong apoptosis
[8]
  IC50: 136 ± 62 nM
[9]; 0.1 μM compound, 4 hours
  combination with 6.8 μM etoposide on colony formation greater than additive: not
[9]; 10 μM compound, 4 hours
  combination with 6.8 μM etoposide on colony formation: synergistic effect
[9]; 4 hours treatment alone
  effect on cell survival, single agent: minimal effect on cell survival
